US20090305955A1, “Cyclopeptide with Anti-Cancer Activity Derived from Collagen Type IV” (priority 2006, published 2009)
Where a SMILES comes first, the peptide text is derived from it.

Experiments:
TIMP-1 = assay: Reverse zymography of TIMP secretion, UACC-903 cells; assay type: cell-based, human; conditions: conditioned culture medium
Method: (§1) FIG. 13: Effect of YSNSG (SEQ ID NO: 3) cyclopeptide on secretion of TIMP. The secretion of 3 tissue inhibitors of metalloproteinases (TIMP) was analyzed by reverse zymography (A) in a medium conditioned by control UACC-903 cells in the absence of peptide (negative control, white bar), on cells treated with the linear heptapeptide CNYYSNS (SEQ ID NO: 5) (20 μM) (positive control, black bar) or treated with cyclopeptide YSNSG (SEQ ID NO: 3) at a concentration from 5 μM to 20 μM (grey bars). The conditioned medium was recovered and analyzed as described in the methods.
(§2) The expression of MMP-2 and MMP-9 in a conditioned medium of UACC-903 cells, treated or not treated with synthetic peptides, was analyzed by zymography in the presence of gelatine as described above (Pasco et al, 2000(a)). The secretion of TIMP-2 was analyzed in a conditioned medium of UACC-903 cells by reverse zymography in the presence of gelatine, as described above (Pascal et al, 2000(a)).

TIMP-3 = assay: as above; assay type: cell-based, human; conditions: conditioned culture medium
Method: as §1, §2

TIMP-2 = assay: as above; assay type: cell-based, human; conditions: cyclopeptide 5 to 20 μM, linear heptapeptide 20 μM
Method: as §1, §2

MMP-9 = assay: Zymography in the presence of gelatine, conditioned medium of UACC-903 cells; assay type: cell-based, human; conditions: cyclopeptide 5 to 20 μM, linear heptapeptide 20 μM
Method: (§3) FIG. 11: Effect of YSNSG (SEQ ID NO: 3) cyclopeptide on secretion of MMP-2 and MMP-9. The secretion of MMP-2 and MMP-9 was analyzed by zymography in the presence of gelatine (A), on a medium conditioned by UACC-903 cells in the absence of peptide (negative control, white bar), on cells treated with linear heptapeptide CNYYSNS (SEQ ID NO: 5) (20 μM) (positive control, black bar) or cells treated with concentrations of 5 μM to 20 μM of cyclopeptide (grey bars) YSNSG (SEQ ID NO: 3). The conditioned medium was collected and analyzed as described in the method. Quantification was carried out using Bio 1D software. B: quantification of proMMP2; C: quantification of proMMP-9 (A.U.: arbitrary unit);
as §2

MMP-2 = assay: as above; assay type: cell-based, human; conditions: cyclopeptide 5 to 20 μM, linear heptapeptide 20 μM
Method: as §3, §2

UACC-903 melanoma cells = assay: In vitro invasion/migration test (modified Boyden chambers, Matrigel); assay type: cell-based, human; conditions: 20 μM; 48 hours; Matrigel membranes, 10% FCS chemoattractive agent
Method: FIG. 10: In vitro migration test for UACC-903 human melanoma cells in the presence of the cyclopeptide YSNSG (SEQ ID NO: 3). The UACC-903 cells were incubated with a control medium (control, negative, white bar), a linear heptapeptide CNYYSNS (SEQ ID NO: 5) (positive control, black bar) or with the cyclopeptide YSNSG (SEQ ID NO: 3) at 20 μM (grey bar). After an incubation period of 48 hours, the migrated cells were stained with crystal violet and counted under reverse microscopy.
Cell invasion was tested in modified Boyden chambers (ThinCert®, a cell culture insert for 24-well plates, internal diameter 8.36 mm, 8 μm pore, Greiner Bio-one, Courtaboeuf, France). Briefly, 5×10^4 cells were suspended in DMEM medium without FCS and containing 0.2% BSA and seeded onto membranes spread with Matrigel (30 μg/cm^2). DMEM medium supplemented with 10% FCS and 2% BSA were used as the chemo-attracting agent. […] The cells remaining on the upper surface of the membranes were eliminated by scraping and those on the lower surface were counted using a reverse microscope (Pasco et al, 2000(a)). The counted cells corresponded to the cells which had crossed the Matrigel mat then the porous membrane of the Boyden chamber; they thus reflected the migration and invasion capacities of the tumour cells through an extracellular matrix or a basal membrane, reproduced in this case by the Matrigel.

[1] = system: B16F1 murine melanoma cells; assay: Measurement of in vivo tumour growth, pre-incubated B16F1 cells injected s.c.; design: species or system C57BL6 mice; conditions: day 20; for in vivo tumour growth: B16F1 cells pre-incubated 15 minutes with 20 μM peptide, s.c. in C57BL6 mice
Method: FIG. 16: In vivo tumour growth in the presence of YSNSG (SEQ ID NO: 3) cyclopeptide. B16F1 cells were incubated for 15 minutes with a control medium (negative control, white diamonds), with the linear heptapeptide CNYYSNS (SEQ ID NO: 5) (20 μM) (positive control, black diamonds) or with the cyclopeptide YSNSG (SEQ ID NO: 3) at a concentration of 20 μM (grey diamonds), then injected subcutaneously into syngenic C57BL6 mice (2.5×10^5 cells per mouse). The tumour volume was measured on the 20th day;
Female C57BL6 mice (mean body weight 18 to 20 g) were purchased from Harlan France (Gannat, France). The animals were placed in individual cages at a constant temperature and humidity; food and water were supplied ad libitum. All of the mice underwent a 1 week acclimatization period before commencing the experiments. The in vivo experiments were carried out in accordance with the recommendations of the Centre National de la recherché Scientifique (CNRS, National Centre for Scientific Research).
A suspension of B16F1 cells (2.5×10^5 cells in RPMI 1640 medium) which may or may not have been pre-treated with the cyclopeptide YSNSG (SEQ ID NO: 3) (20 μM) was injected subcutaneously into the left flank of syngenic mice from a different series. The mice were sacrificed on day 20 and the tumour size was measured. The volume of the tumours was determined by the relationship V=½A×B^2 in which A and B respectively represent the largest and the smallest dimension of the tumour (Wald et al).

Compound | Secretion of TIMP-1 (TIMP-1) | Secretion of TIMP-3 (TIMP-3) | secretion of TIMP-2 (TIMP-2) | secretion of MMP-9 (MMP-9) | secretion of MMP-2 (MMP-2) | reduction in the migration of UACC-903 cells (UACC-903 melanoma cells) | in vivo tumour growth [1] | reduction in tumour volume ([1]; B16F1 cells pre-treated with 20 μM, no re-injection of peptide, C57BL6 mice) [%]
CNYYSNS (Synthetic linear heptapeptide) [linear peptide NC1 [α3(IV) 185-191], the 7 N-terminal amino acids of the 185-203 domain; positive control, reference compound] | not modified | not modified | dose-dependent increase | No significant change | No significant change | similar | inhibited tumour growth | –
NC(=O)CC1NC(=O)C(CO)NC(=O)C(Cc2ccc(O)cc2)NC(=O)CNC(=O)C(CO)NC1=O (stereo not drawn) [cyclopeptide YSNSG, cyclopeptide YSNSG (SEQ ID NO: 3)] (cyclo(GYSNS); configuration not given here) | not modified | not modified | dose-dependent increase | No significant change | No significant change | −47% | inhibited tumour growth | 46
